# Tested on: patients of the REDUCE-IT and earlier EPA placebo-controlled trials
# Test: Example 3: adverse events by risk ratio, icosapent ethyl vs placebo (candidate categories; infectious disease terms of interest)
# Details: for NNT / Risk Ratio (95% CI) / ARR: ISS
# [1] = Frequent Bowel Movements, Any Severity
# [2] = Frequent Bowel Movements, Mild Severity
# [3] = Frequent Bowel Movements, Related
# [4] = Huntington's Chorea, Any Severity
# [5] = Huntington's Chorea, Mild Severity
# [6] = ITT, AMR101 N = 4089, placebo 8 of 4090
# [7] = ITT, AMR101 N = 4089, placebo 10 of 4090
# [8] = ITT, AMR101 N = 4089, placebo 22 of 4090
smiles,measurement,setting,value
"CC/C=C\C/C=C\C/C=C\C/C=C\C/C=C\CCCC(=O)OCC [icosapent ethyl, eicosapentaenoic acid ethyl ester]",NNT,"Flatulence, Mild Severity",129
same,Risk Ratio (95% CI),"Flatulence, Mild Severity",0.424 (0.125 to 1.440) 3
same,ARR,"Flatulence, Related",−0.8%
same,NNT,"Flatulence, Related",121
same,Risk Ratio (95% CI),"Flatulence, Related",0.463 (0.152 to 1.408) 3
same,ARR,[1],−0.6%
same,NNT,[1],173
same,Risk Ratio (95% CI),"Frequent Bowel Movements, Any Severity, case counts given",[0 drug vs 3 PBO]
same,ARR,[2],−0.4%
same,NNT,[2],259
same,Risk Ratio (95% CI),"Frequent Bowel Movements, Mild Severity, case counts given",[0 drug vs 2 PBO]
same,ARR,[3],−0.6%
same,NNT,[3],173
same,Risk Ratio (95% CI),"Frequent Bowel Movements, Related, case counts given",[0 drug vs 3 PBO]
same,ARR,Hot Flush,−0.3%
same,NNT,Hot Flush,292
same,Risk Ratio (95% CI),Hot Flush,0.556 (0.125 to 2.474) 3
same,ARR,[4],−1.3%
same,NNT,[4],77
same,Risk Ratio (95% CI),[4],0.247 (0.067 to 0.908) 4
same,ARR,[5],−0.9%
same,NNT,[5],109
same,Risk Ratio (95% CI),[5],0.318 (0.083 to 1.223)4
same,ARR,Menorrhagia,−0.6%
same,NNT,Menorrhagia,159
same,Risk Ratio (95% CI),Menorrhagia,0.185 (0.021 to 1.653) 5
same,ARR,"Muscle spasms, Related",−0.0%
same,NNT,"Muscle spasms, Related",2007
same,Risk Ratio (95% CI),"Muscle spasms, Related",0.741 (0.046 to 11.826) 2
same,ARR,"Nasopharyngitis, Any Severity",−2.3%
same,NNT,"Nasopharyngitis, Any Severity",43
same,Risk Ratio (95% CI),"Nasopharyngitis, Any Severity",0.588 (0.344 to 1.004) 3
same,ARR,"Nasopharyngitis, Mild Severity",−2.3%
same,NNT,"Nasopharyngitis, Mild Severity",43
same,Risk Ratio (95% CI),"Nasopharyngitis, Mild Severity",0.494 (0.265 to 0.921) 3
same,ARR,"Weight loss, Related",−0.4%
same,NNT,"Weight loss, Related",230
same,Risk Ratio (95% CI),"Weight loss, Related",0.247 (0.026 to 2.369) 4
same,Bronchiectasis TEAE: % of subjects,"ITT, AMR101 N = 4089, placebo 0.1, Fisher's Exact p 0.5076",(0.1) %
same,Hepatosplenomegaly TEAE: % of subjects,"ITT, AMR101 N = 4089, placebo 0.1, Fisher's Exact p 0.6249",(0.0) %
same,Allergic sinusitis TEAE: % of subjects,"ITT, AMR101 N = 4089, placebo 0.1, Fisher's Exact p 0.6874",(0.0) %
same,Mucosal inflammation TEAE: % of subjects,"ITT, AMR101 N = 4089, placebo 0.1, Fisher's Exact p 0.7264",(0.1) %
same,Systemic inflammatory response syndrome TEAE: % of subjects,"ITT, AMR101 N = 4089, placebo 0.2, Fisher's Exact p 0.1092",(0.0) %
same,Splenomegaly TEAE: % of subjects,"ITT, AMR101 N = 4089, placebo 0.2, Fisher's Exact p 0.1792",(0.1) %
same,Neutropenia TEAE: % of subjects,"ITT, AMR101 N = 4089, placebo 0.2, Fisher's Exact p 0.2262",(0.1) %
same,Gingivitis TEAE: % of subjects,"ITT, AMR101 N = 4089, placebo 0.2, Fisher's Exact p 0.3013",(0.1) %
same,Orthopnea TEAE: % of subjects,"ITT, AMR101 N = 4089, placebo 0.2, Fisher's Exact p 0.3873",(0.1) %
same,Helicobacter infection TEAE: % of subjects,"ITT, AMR101 N = 4089, placebo 0.2, Fisher's Exact p 0.4235",(0.1) %
same,Herpes simplex TEAE: % of subjects,"ITT, AMR101 N = 4089, placebo 0.2, Fisher's Exact p 0.5807",(0.1) %
same,Vulvovaginal mycotic infection TEAE: % of subjects,"ITT, AMR101 N = 4089, placebo 0.3, Fisher's Exact p 0.2097",(0.1) %
same,Bronchitis chronic TEAE: % of subjects,"ITT, AMR101 N = 4089, placebo 0.3, Fisher's Exact p 0.5029",(0.2) %
same,Hepatobiliary disorders (SOC) TEAE: % of subjects,"ITT, AMR101 N = 4089, placebo 0.5, Fisher's Exact p 0.0037",(0.1) %
same,Hepatomegaly TEAE: % of subjects,"ITT, AMR101 N = 4089, placebo 0.5, Fisher's Exact p 0.0065",(0.1) %
same,Atelectasis TEAE: % of subjects,"ITT, AMR101 N = 4089, placebo 0.5, Fisher's Exact p 0.0795",(0.3) %
same,Emphysema TEAE: % of subjects,"ITT, AMR101 N = 4089, placebo 0.5, Fisher's Exact p 0.2144",(0.3) %
same,Rhinitis TEAE: % of subjects,"ITT, AMR101 N = 4089, placebo 0.5, Fisher's Exact p 0.4166",(0.4) %
same,Tooth infection TEAE: % of subjects,"ITT, AMR101 N = 4089, placebo 0.7, Fisher's Exact p 0.2514",(0.5) %
same,Influenza like illness TEAE: % of subjects,"ITT, AMR101 N = 4089, placebo 0.7, Fisher's Exact p 0.6709",(0.6) %
same,Thrombocytopenia TEAE: % of subjects,"ITT, AMR101 N = 4089, placebo 0.8, Fisher's Exact p 0.3393",(0.6) %
same,Wheezing TEAE: % of subjects,"ITT, AMR101 N = 4089, placebo 0.9, Fisher's Exact p 0.1162",(0.6) %
same,General disorders and administration site conditions (SOC) TEAE: % of subjects,"ITT, AMR101 N = 4089, placebo 1.0, Fisher's Exact p 0.1800",(0.7) %
same,Sepsis TEAE: % of subjects,"ITT, AMR101 N = 4089, placebo 1.0, Fisher's Exact p 0.3535",(0.8) %
same,Blood and lymphatic system disorders (SOC) TEAE: % of subjects,"ITT, AMR101 N = 4089, placebo 1.2, Fisher's Exact p 0.0279",(0.7) %
same,Hepatosplenomegaly TEAE: number of subjects,"ITT, AMR101 N = 4089, placebo 3 of 4090",1
same,Allergic sinusitis TEAE: number of subjects,"ITT, AMR101 N = 4089, placebo 4 of 4090",2
same,Mucosal inflammation TEAE: number of subjects,"ITT, AMR101 N = 4089, placebo 5 of 4090",3
same,Cough TEAE: % of subjects,"ITT, AMR101 N = 4089, placebo 5.9, Fisher's Exact p 1.0000",(5.9) %
same,Bronchiectasis TEAE: number of subjects,"ITT, AMR101 N = 4089, placebo 6 of 4090",3
same,Influenza TEAE: % of subjects,"ITT, AMR101 N = 4089, placebo 6.6, Fisher's Exact p 0.7541",(6.4) %
same,Pneumonia TEAE: % of subjects,"ITT, AMR101 N = 4089, placebo 6.8, Fisher's Exact p 0.5627",(6.4) %
same,"Respiratory, thoracic and mediastinal disorders (SOC) TEAE: % of subjects","ITT, AMR101 N = 4089, placebo 7.8, Fisher's Exact p 0.2050",(7.0) %
same,Herpes simplex TEAE: number of subjects,[6],5
same,Neutropenia TEAE: number of subjects,[6],3
same,Orthopnea TEAE: number of subjects,[6],4
same,Systemic inflammatory response syndrome TEAE: number of subjects,[6],2
same,Helicobacter infection TEAE: number of subjects,"ITT, AMR101 N = 4089, placebo 9 of 4090",5
same,Gingivitis TEAE: number of subjects,[7],5
same,Splenomegaly TEAE: number of subjects,[7],4
same,Vulvovaginal mycotic infection TEAE: number of subjects,"ITT, AMR101 N = 4089, placebo 11 of 4090",5
same,Bronchitis chronic TEAE: number of subjects,"ITT, AMR101 N = 4089, placebo 12 of 4090",8
same,Infections and infestations (SOC) TEAE: % of subjects,"ITT, AMR101 N = 4089, placebo 14.6, Fisher's Exact p 0.2676",(13.8) %
same,Hepatomegaly TEAE: number of subjects,"ITT, AMR101 N = 4089, placebo 19 of 4090",5
same,Emphysema TEAE: number of subjects,"ITT, AMR101 N = 4089, placebo 20 of 4090",12
same,Subjects with at least one Infectious Disease TEAE of Interest: % of subjects,"ITT, AMR101 N = 4089, placebo 21.6, Fisher's Exact p 0.0562",(19.9) %
same,Atelectasis TEAE: number of subjects,[8],11
same,Hepatobiliary disorders (SOC) TEAE: number of subjects,[8],6
same,Rhinitis TEAE: number of subjects,[8],16
same,Influenza like illness TEAE: number of subjects,"ITT, AMR101 N = 4089, placebo 27 of 4090",23
same,Tooth infection TEAE: number of subjects,"ITT, AMR101 N = 4089, placebo 29 of 4090",20
same,Thrombocytopenia TEAE: number of subjects,"ITT, AMR101 N = 4089, placebo 31 of 4090",23
same,Wheezing TEAE: number of subjects,"ITT, AMR101 N = 4089, placebo 36 of 4090",23
same,General disorders and administration site conditions (SOC) TEAE: number of subjects,"ITT, AMR101 N = 4089, placebo 40 of 4090",28
same,Sepsis TEAE: number of subjects,"ITT, AMR101 N = 4089, placebo 42 of 4090",33
same,Blood and lymphatic system disorders (SOC) TEAE: number of subjects,"ITT, AMR101 N = 4089, placebo 48 of 4090",28
same,Subjects with at least one Infectious Disease Events of Interest (TEAE terms and labs): % of subjects,"ITT, AMR101 N = 4089, placebo 86.8, Fisher's Exact p <.0001",(83.0) %
same,Cough TEAE: number of subjects,"ITT, AMR101 N = 4089, placebo 241 of 4090",241
same,Influenza TEAE: number of subjects,"ITT, AMR101 N = 4089, placebo 271 of 4090",263
same,Pneumonia TEAE: number of subjects,"ITT, AMR101 N = 4089, placebo 277 of 4090",263
same,"Respiratory, thoracic and mediastinal disorders (SOC) TEAE: number of subjects","ITT, AMR101 N = 4089, placebo 318 of 4090",287
same,Infections and infestations (SOC) TEAE: number of subjects,"ITT, AMR101 N = 4089, placebo 599 of 4090",563
same,Subjects with at least one Infectious Disease TEAE of Interest: number of subjects,"ITT, AMR101 N = 4089, placebo 883 of 4090",812
same,Subjects with at least one Infectious Disease Events of Interest (TEAE terms and labs): number of subjects,"ITT, AMR101 N = 4089, placebo 3549 of 4090",3394
same,AR: ADHD (AE table),R-I,0.0%
same,AR: Allergic sinusitis (AE table),R-I,0.1%
same,AR: Alzheimer's Disease (AE table),R-I,0.1%
same,AR: Asthma (AE table),R-I,1.3%
same,AR: Atelectasis (AE table),R-I,0.4%
